Measurements from patent US9434687B2, “Detection of synthetic cannabinoids” (priority 2011, dated 2016).

Tests used:
Format in all cases: binding, sheep
[1] = test system: antibodies raised to Immunogens I & II; assay: Competitive ELISA, selected molecules as potential cross-reactants (Table 3); conditions: for % CR / IC50: Table 3, standard conc 750.00 ng/ml
Protocol: (a) The wells of an enhanced binding 96 well polystyrene microtiter plate were coated with the Ig fraction of the antiserum raised to Immunogen I (Hapten A-BTG—example 5) and diluted in 10 mM Tris, pH8.5 (125 μl/well). The appropriate antibody coating concentration was determined using standard ELISA checkerboard techniques. The plate was incubated for 2 hours at 37° C., washed 4 times over a 10-minute period with Tris buffered saline containing Tween 20 (TBST) and tapped dry. Standard solutions of JWH synthetic cannabinoids, metabolites and selected molecules were prepared in TBST and 50 μl of each was added to the appropriate wells. 75 μl of conjugate (Hapten A-HRP) diluted in Tris buffer containing EDTA, D-mannitol, sucrose, thimerosal and BSA, was added to each of the wells. The appropriate dilution of conjugate was also determined using standard ELISA checkerboard techniques. The plate was incubated at 25° C. for 1 hour. The excess unbound conjugate was removed by washing 6 times over a 10-minute period with TBST and tapped dry. 125 μl of tetramethylbenzedine (TMB) substrate solution was added to each well of the plate that was then incubated for 15-20 minutes in the dark at room temperature. The reaction was terminated by addition of 125 μl of 0.2M sulphuric acid to each well. The absorbance was then measured at 450 nm using a microtiter plate reader.
Employing each series of standards, calibration curves were generated and these were used to determine the specificity of the immunoassay for the JWH synthetic cannabinoids, metabolites and selected molecules. The results of this study are presented in Tables 1 to 3, cross-reactivity being calculated according to the following formula: % CR=IC50,JWH-018/IC50,CR×100
Where % CR is the percentage cross-reactivity, IC50, JWH-018 is the concentration of JWH-018 that causes 50% displacement of signal and IC50, CR is the concentration of JWH synthetic cannabinoid/metabolite/selected molecule that causes 50% displacement of signal.
The antibody produced from Immunogen I is able to bind to JWH molecules known to be incorporated in herbal therapeutics such as JWH-018, proposed metabolites such as M2 (Wintermeyer et al 2010), and potential metabolites such as M5. The detection and quantification of other JWH SSCs is also provided for, the antibodies of the invention bind a range of molecules comprising the 3-(1-naphthoyl)-1H-indole structure (e.g. JWH-071, JWH-398, M1 etc.). […] The concept of using the antibodies of the invention to detect and determine future stealth synthetic cannabinoids is highlighted in Table 4; the 5-fluoropentyl derivative known to bind the CB 1 receptor, but which as of yet has not been detected in herbal therapeutics or similar substances, binds to antibodies raised from Immunogens I and II.

[2] = test system: IgG fraction of antiserum raised to Immunogen VII; conditions: Antibody to Immunogen VII; cross-reactants at 100 ng/ml; 1000 ng/ml; standard JWH-015
[3] = test system: IgG fraction of antiserum raised to Immunogen VIII; conditions: Antibody to Immunogen VIII; cross-reactants at 100 ng/ml; 1000 ng/ml; standard JWH-018
[4] = test system: IgG fraction of antiserum raised to Immunogen IV; conditions: Antibody to Immunogen IV; cross-reactants at 100 ng/ml; 1000 ng/ml; standard JWH-018
[5] = test system: IgG fraction of antiserum raised to Immunogen I; conditions: Antibody to Immunogen I; cross-reactants at 100 ng/ml; 1000 ng/ml; standard JWH-018
Procedure, shortened: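 Plates were coated with the IgG fraction of sheep antiserum raised to Immunogen I and incubated with standards (JWH-018, 0-40 ng/ml) plus hapten-HRP conjugate for 1 h at 25° C. Detection used TMB, read at 450 nm. IC50 was taken from a 4-parameter fit as the concentration giving half the zero-standard OD.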

Structure (SMILES)	% CR [1] [%]	IC50 [1] [µg/mL]	% B/B0 [2] [%]	% B/B0 [3] [%]	% B/B0 [4] [%]	% B/B0 [5] [%]	binding / cross-reaction with antibodies raised from Immunogens I and II (in words) [1]
OCCc1c[nH]c2ccc(O)cc12 [5-hydroxytryptophol]	<0.28	>0.75	98.45	102.93	94.51	93.30	–
CCCCCCC(C)(C)c1ccc([C@H]2CCC[C@@H](O)C2)c(O)c1 [CP-49,497-C7]	<0.28	>0.75	94.23	86.95	96.84	101.20	–
CCCCCc1cc(O)c2c(c1)OC(C)(C)c1ccc(C)cc1-2 [Cannabinol]	<0.28	>0.75	95.43	94.03	94.74	86.60	–
CCCCCc1cc(O)c2c(c1)OC(C)(C)[C@@H]1CCC(C)=C[C@@H]21 [Delta 9 THC]	<0.28	>0.75	96.76	96.10	93.62	102.66	–
O=C(O)c1c[nH]c2ccccc12 [Indole-3-carboxylic Acid]	<0.28	>0.75	96.90	96.28	93.42	101.26	do not cross-react
